Article PMC7243443 (Journal of natural products, 2020)

How the values were obtained:
[1] = test system: Na^+/K^+-ATPase (adenosine 5′-triphosphatase from porcine cerebral cortex); test: Na+/K+-ATPase activity assay; format: biochemical; settings: 7: at concentrations less than 100 μM
[2] = test system: small panel of human cancer cell lines; settings: read-out: IC50, cytotoxicity against a small panel of human cancer cell lines; cited from earlier work
[3] = test system: glucose uptake in H1299 human lung cancer cells; test: Glucose uptake assay; format: cell-based; settings: 30 μM, 15 min
[4] = test system: ipsilateral kidney; settings: 12–27 kg female dogs, renal-artery infusion, 0.05–0.08 mg/kg; cited from earlier work

SMILES: C[C@H]1O[C@@H](O[C@H]2[C@@H](O)C[C@H](O[C@H]3[C@@H](O)C[C@H](O[C@H]4CC[C@@]5(C)[C@H](CC[C@@H]6[C@@H]5C[C@@H](O)[C@]5(C)[C@@H](C7=CC(=O)OC7)CC[C@]65O)C4)O[C@@H]3C)O[C@@H]2C)C[C@H](O)[C@@H]1O [compound 1, (+)-Digoxin]
- inhibition of Na+/K+-ATPase activity (in words) [1]: inhibited Na^+/K^+-ATPase activity in a concentration-dependent manner
- IC50 [2]: 40 to 200 nM
- inhibition of glucose uptake / glucose transport (in words) [3]: did not inhibit glucose uptake
- inhibition of glucose uptake / glucose transport (in words) ([3]; listed as (+)-digoxin): did not inhibit glucose transport
- excretion of Ca2+, Mg2+, and PO4 3- by the ipsilateral kidney (in words) [4]: enhanced
- maximal transport of glucose (in words) [4]: no change in the maximal transport of glucose
